From the supplement of paper PMC11061612

Key:
[1] = test system: COLO-684 (Endometrial Carcinoma); experiment: Bliss excess, mean over the matrix (fraction); higher = more synergy
How it was run: (§1)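 Bliss excess equals the observed combination effect minus the expected value EA + EB − EA·EB, where EA and EB are the effects of each agent alone. Combination Emax is the second-highest inhibition within the matrix. Inhibition was scaled from CellTiter-Glo 2.0 luminescence, with 0 set by vehicle wells and 1 by blank wells, after 72 hours of two-drug dosing of cells plated in 1536-well plates.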

[2] = test system: LOUCY (T-Lymphoblastic Leukemia); experiment: as above
How it was run: as §1

[3] = test system: HCC-44 (Lung Adenocarcinoma); experiment: as above
How it was run: as §1

[4] = test system: NKM-1 (Acute Myeloid Leukemia); experiment: as above
How it was run: as §1

[5] = test system: NCI-H1755 (Lung Adenocarcinoma); experiment: as above
How it was run: as §1

[6] = test system: FLO-1 (Esophageal Adenocarcinoma); experiment: as above
How it was run: as §1

[7] = test system: OV-90 (Ovarian Carcinoma); experiment: as above
How it was run: as §1

[8] = test system: PC-14 (Lung Adenocarcinoma); experiment: as above
How it was run: as §1

[9] = test system: SW684 (Other Solid Carcinomas); experiment: as above
How it was run: as §1

[10] = test system: NCI-H810 (Non-Small Cell Lung Carcinoma); experiment: as above
How it was run: as §1

[11] = test system: Becker (Low Grade Glioma); experiment: as above
How it was run: as §1

[12] = test system: CML-T1 (Chronic Myelogenous Leukemia); experiment: as above
How it was run: as §1

CHL-1 (Melanoma) [13] = experiment: as above
How it was run: as §1

[14] = test system: EB-3 (Burkitt's Lymphoma); experiment: as above
How it was run: as §1

[15] = test system: PANC-02-03 (Pancreatic Carcinoma); experiment: as above
How it was run: as §1

[16] = test system: LAMA-84 (Chronic Myelogenous Leukemia); experiment: as above
How it was run: as §1

[17] = test system: RMG-I (Ovarian Carcinoma); experiment: as above
How it was run: as §1

[18] = test system: KYSE-70 (Esophageal Squamous Cell Carcinoma); experiment: as above
How it was run: as §1

KYM-1 (Rhabdomyosarcoma) [19] = experiment: as above
How it was run: as §1

[20] = test system: SK-MM-2 (Plasma Cell Myeloma); experiment: as above
How it was run: as §1

[21] = test system: COLO-684 (Endometrial Carcinoma); experiment: combination Emax (second highest fraction inhibited in the dose matrix, 72 h); higher = more inhibition; extreme values may be limits of the assay
How it was run: as §1

[22] = test system: LOUCY (T-Lymphoblastic Leukemia); experiment: as above
How it was run: as §1

[23] = test system: HCC-44 (Lung Adenocarcinoma); experiment: as above
How it was run: as §1

[24] = test system: NKM-1 (Acute Myeloid Leukemia); experiment: as above
How it was run: as §1

[25] = test system: NCI-H1755 (Lung Adenocarcinoma); experiment: as above
How it was run: as §1

[26] = test system: FLO-1 (Esophageal Adenocarcinoma); experiment: as above
How it was run: as §1

[27] = test system: OV-90 (Ovarian Carcinoma); experiment: as above
How it was run: as §1

[28] = test system: PC-14 (Lung Adenocarcinoma); experiment: as above
How it was run: as §1

[29] = test system: SW684 (Other Solid Carcinomas); experiment: as above
How it was run: as §1

[30] = test system: NCI-H810 (Non-Small Cell Lung Carcinoma); experiment: as above
How it was run: as §1

[31] = test system: Becker (Low Grade Glioma); experiment: as above
How it was run: as §1

[32] = test system: CML-T1 (Chronic Myelogenous Leukemia); experiment: as above
How it was run: as §1

CHL-1 (Melanoma) [33] = experiment: as above
How it was run: as §1

[34] = test system: EB-3 (Burkitt's Lymphoma); experiment: as above
How it was run: as §1

[35] = test system: PANC-02-03 (Pancreatic Carcinoma); experiment: as above
How it was run: as §1

[36] = test system: LAMA-84 (Chronic Myelogenous Leukemia); experiment: as above
How it was run: as §1

[37] = test system: RMG-I (Ovarian Carcinoma); experiment: as above
How it was run: as §1

[38] = test system: KYSE-70 (Esophageal Squamous Cell Carcinoma); experiment: as above
How it was run: as §1

KYM-1 (Rhabdomyosarcoma) [39] = experiment: as above
How it was run: as §1

[40] = test system: SK-MM-2 (Plasma Cell Myeloma); experiment: as above
How it was run: as §1

| SMILES | Bliss excess [1] | Bliss excess [2] | Bliss excess [3] | Bliss excess [4] | Bliss excess [5] | Bliss excess [6] | Bliss excess [7] | Bliss excess [8] | Bliss excess [9] | Bliss excess [10] | Bliss excess [11] | Bliss excess [12] | Bliss excess (CHL-1 (Melanoma) [13]) | Bliss excess [14] | Bliss excess [15] | Bliss excess [16] | Bliss excess [17] | Bliss excess [18] | Bliss excess (KYM-1 (Rhabdomyosarcoma) [19]) | Bliss excess [20] | combination Emax [21] | combination Emax [22] | combination Emax [23] | combination Emax [24] | combination Emax [25] | combination Emax [26] | combination Emax [27] | combination Emax [28] | combination Emax [29] | combination Emax [30] | combination Emax [31] | combination Emax [32] | combination Emax (CHL-1 (Melanoma) [33]) | combination Emax [34] | combination Emax [35] | combination Emax [36] | combination Emax [37] | combination Emax [38] | combination Emax (KYM-1 (Rhabdomyosarcoma) [39]) | combination Emax [40] |
| --- | --- | --- | --- | --- | --- | --- | --- | --- | --- | --- | --- | --- | --- | --- | --- | --- | --- | --- | --- | --- | --- | --- | --- | --- | --- | --- | --- | --- | --- | --- | --- | --- | --- | --- | --- | --- | --- | --- | --- | --- |
| C=CCn1c(=O)c2cnc(Nc3ccc(N4CCN(C)CC4)cc3)nc2n1-c1cccc(C(C)(C)O)n1 [AZD1775] + Nc1ccn([C@@H]2O[C@H](CO)[C@@H](O)C2(F)F)c(=O)n1 [Gemcitabine] (first compound max 1 µM, partner max 0.3 µM) | -0.0674 | 0.108 | 0.0711 | 0.0002 | 0.0304 | 0.0955 | -0.0166 | 0.0198 | -0.0333 | -0.0695 | 0.0271 | 0.0273 | 0.0089 | 0.0105 | 0.0035 | 0.0286 | -0.0608 | -0.002 | 0.0009 | 0.0664 | 0.718 | 0.995 | 0.916 | 1 | 0.786 | 0.904 | 0.555 | 0.917 | 0.382 | 0.828 | 0.584 | 0.998 | 0.725 | 0.811 | 0.588 | 0.963 | 0.401 | 0.565 | 0.999 | 0.623 |
| Cc1nc(-c2cn3c(n2)-c2ccc(-c4cnn(C(C)(C)C(N)=O)c4)cc2OCC3)n(C(C)C)n1 [Taselisib] + O=C(Nc1ccc2[nH]nc(-c3ccncc3)c2c1)[C@@H]1CCN(CC(=O)N2CCN(c3ccc(-c4ncccn4)cc3)CC2)C1 [SCH772984] (first compound max 10 µM, 7x7, partner max 5 µM) | -0.0183 | 0.0209 | 0.0906 | 0.0911 | 0.0655 | 0.115 | 0.0451 | 0.133 | 0.0283 | -0.0601 | 0.0868 | 0.0342 | 0.0652 | 0.0114 | 0.126 | 0.11 | -0.0455 | 0.0674 | 0.0003 | 0.0166 | 0.63 | 0.627 | 0.983 | 1 | 0.991 | 0.737 | 0.827 | 0.973 | 0.823 | 0.104 | 0.757 | 0.493 | 0.575 | 0.493 | 0.906 | 0.999 | 0.599 | 0.686 | 0.671 | 0.349 |
| N#Cc1cnc(Nc2cc(NC[C@H]3CNCCO3)c(C(F)(F)F)cn2)cn1 [SRA737] + CCc1c2c(nc3ccc(O)cc13)-c1cc3c(c(=O)n1C2)COC(=O)[C@]3(O)CC [SN-38] (first compound max 10 µM, 7x7, partner max 0.3 µM) | 0.0144 | 0.102 | 0.124 | -0.0365 | -0.0327 | 0.0593 | -0.0976 | 0.0164 | -0.0846 | 0.0918 | -0.0297 | -0.0022 | 0.0724 | -0.0157 | -0.0673 | -0.023 | -0.0426 | 0.0857 | -0.0207 | 0.014 | 0.878 | 0.952 | 0.904 | 0.995 | 0.871 | 0.815 | 0.519 | 0.816 | 0.459 | 0.829 | 0.865 | 1 | 0.807 | 0.828 | 0.674 | 0.953 | 0.484 | 0.683 | 0.945 | 0.776 |
| C=CCn1c(=O)c2cnc(Nc3ccc(N4CCN(C)CC4)cc3)nc2n1-c1cccc(C(C)(C)O)n1 [AZD1775] + CCc1c2c(nc3ccc(O)cc13)-c1cc3c(c(=O)n1C2)COC(=O)[C@]3(O)CC [SN-38] (first compound max 1 µM, partner max 0.3 µM) | -0.0122 | 0.0229 | 0.0458 | 0.0008 | 0.0139 | 0.0261 | -0.101 | -0.0001 | 0.0144 | -0.0454 | -0.0094 | -0.002 | 0.0518 | -0.0467 | 0.0042 | -0.0202 | -0.0848 | -0.0358 | -0.0535 | 0.0271 | 0.906 | 0.995 | 0.935 | 0.997 | 0.827 | 0.897 | 0.537 | 0.929 | 0.493 | 0.634 | 0.903 | 1 | 0.833 | 0.884 | 0.706 | 0.993 | 0.524 | 0.599 | 0.958 | 0.794 |
